# Assays:
# [1] = tested on: obese individuals with NASH; conditions: 4-12 weeks, no reported change in body mass index; cited from earlier work
# [2] = tested on: acetaminophen-induced hepatocellular injury; conditions: mice and humans; cited from earlier work
# [3] = in vivo; set-up: species or system rats; conditions: rat, 20 mg/kg
# Description: Samples were taken from the portal vein (PV) and jugular vena cava (JVC) in rats that were either pre-treated with or naïve to cysteamine therapy.
# The portal vein delivers blood, and therefore drug, directly to the liver where it diffuses into the periportal region. The concentration of drug in the periportal region is therefore at a maximum level and is higher than the drug concentration in the hepatic lobular region (which drains into the hepatic central veins and then into the JVC). This is possible because as blood, and therefore drug, traverses through the hepatic lobule away from the portal vein its contents will undergo some degree of first-pass metabolism. It is postulated here, that patients with type 2 pediatric NASH, receiving a greater drug exposure at the site of maximal disease (i.e., periportal region; recall Type 2 NASH is characterized by portal inflammation), are more likely to respond to drug therapy than children with type 1 NASH.
# [4] = tested on: leukocyte cystine; conditions: delivery to the small intestine; cited from earlier work
# [5] = tested on: children with NASH; conditions: cited from earlier work
# [6] = tested on: obese children who had steatosis; conditions: after vitamin E 400-1000 IU/day for 4-10 months, cited from earlier work
# [7] = biological target: T1, tissue transglutaminase (Rattus norvegicus, UniProt Q9WVJ6); conditions: via inhibition of tissue transglutaminase; cited from earlier work
# T1 construct: host or cells: liver of CCl4-treated animals (in vivo)
# T1 sequence (Q9WVJ6 1-686): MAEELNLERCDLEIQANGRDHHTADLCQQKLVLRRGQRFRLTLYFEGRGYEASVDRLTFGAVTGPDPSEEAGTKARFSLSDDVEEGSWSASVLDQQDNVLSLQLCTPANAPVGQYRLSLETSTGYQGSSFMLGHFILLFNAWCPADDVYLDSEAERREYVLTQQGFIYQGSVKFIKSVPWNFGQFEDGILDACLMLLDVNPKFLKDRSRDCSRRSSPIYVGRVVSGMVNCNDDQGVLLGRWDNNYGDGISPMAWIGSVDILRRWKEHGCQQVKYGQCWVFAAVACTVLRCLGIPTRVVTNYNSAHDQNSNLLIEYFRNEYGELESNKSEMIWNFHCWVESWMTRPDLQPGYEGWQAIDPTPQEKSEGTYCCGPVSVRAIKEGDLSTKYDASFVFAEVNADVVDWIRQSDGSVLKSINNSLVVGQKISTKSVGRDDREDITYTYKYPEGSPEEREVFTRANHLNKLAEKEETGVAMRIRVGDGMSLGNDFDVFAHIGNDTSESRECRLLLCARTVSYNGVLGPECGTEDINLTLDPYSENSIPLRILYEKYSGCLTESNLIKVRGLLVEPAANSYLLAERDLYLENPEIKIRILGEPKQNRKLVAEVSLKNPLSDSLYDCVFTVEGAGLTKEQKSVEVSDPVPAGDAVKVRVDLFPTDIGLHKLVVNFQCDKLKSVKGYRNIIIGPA
compound,measurement,setting,value
CC(=O)N[C@@H](CS)C(=O)O [N-acetylcysteine],aminotransferase levels and gamma-GT,[1],improvement
NCCS [cysteamine],prevention of acetaminophen-induced hepatocellular injury,[2],effective
same,Tmax,[3],5 to 10 min
same,"decrease in leukocyte cystine, time after treatment",[4],within an hour
same,"blood liver inflammation markers (ALT, AST, GGT)","[5]; children with NASH, 6 and 12 months treatment",statistically significant improvement
same,primary endpoint of improved histology,[5]; placebo controlled 12 month study group,not achieved
same,chance of histological improvement compared with the placebo group,"[5]; post-hoc analysis, children <65 kg body weight, placebo controlled 12 month study",4 fold
vitamin E,mean AST levels,"[6]; decreased from 104±61 IU/L, P<0.002",33±11 IU/L
same,mean ALT levels,"[6]; decreased from 175±106 IU/L, P<0.01",40±26 IU/L
NCCSSCCN [Cystamine],liver fibrosis induced by carbon tetrachloride,[7],ameliorate liver fibrosis

# From patent US20200163897A1, “METHODS OF TREATING LIVER DISEASES ASSOCIATED WITH PORTAL TRACT OR PERIPORTAL INFLAMMATION” (The Regents of the University of California, priority 2017, published 2020)
